According to patent US8133902B2, “Ammosamides as anticancer agents” (The Regents of the University of California, priority 2007, dated 2012):
pIC50: −log10 of the molar value. Read-outs that look alike come from different tables or passages of the source.

Legend:
Type in all cases: cell-based
[1] = test system: HCT-116 colon carcinoma; test: in vitro cytotoxicity against HCT-116 colon carcinoma; settings: Homo sapiens
Source text: Compounds IA and IB are isolated in a pure form from a marine-derived actinomycete strain CNR698. More specifically, compound IA is obtained from the marine-derived actinomycete strain CNR698, and is the first natural product to contain a […] functionality. Compound IB is obtained from the marine-derived actinomycete strain CNR698. The actinomycete was obtained from a marine sediment. Briefly, the actinomycete, identified as a Streptomyces strain (CNR-698) was isolated from bottom sediments collected at a depth of 300 meters in the Bahamas Islands. […] Subsequent cytotoxicity-guided (HCT-116) fractionation by C18 flash chromatography and RP-HPLC led to the isolation of ammosamides A (compound IA) and B (compound IB) as dark blue and blue-purple, respectively (3 and 4 mg/L)
Accordingly, in some embodiments of the invention, compounds IA and IB are used for making pharmaceutical compositions comprising either or both of the two compounds and a pharmaceutically acceptable carrier. In addition, the pharmaceutical compositions can optionally comprise one or more additional anticancer agent(s).
Activity of probe 4 (FIG. 1) was compared to that of ammosamide A (1 on FIG. 1). […] Florescence microscopy was then used to examine the uptake of probe 4, which was concentrated within HeLa, HCT-116 and PC-3 cells within minutes (FIG. 2). The entire fluorescence from addition of 1 mL of 1 μM in […] appeared within the cell.

[2] = test system: HeLa, HCT-116 and PC-3 cells; test: live cell fluorescence microscopy, retention and localization; settings: pretreatment with 1 mL DMEM containing 10 μM
Procedure: HeLa cells (ATCC CCL-2) were cultured in phenol red-free Dulbecco's modification of Eagle's medium (DMEM) with 4.5 g/L glucose, […] and 5% heat inactivated fetal calf serum (FCS) in glass-bottom dishes. The cells were synchronized using a double thymidine block. Phenol red, a common additive in DMEM, was not used during the culturing or experimentation. Fluorescent images were collected on a Nikon TE 2000 using irradiation with a mercury vapor lamp (Nikon), filtration through a dichroic filter set (FF409, Semrock) with an excitation at 377±50 nm, dichroic with >98% reflection at 344-404 nm and >98% transmission at 415-570 nm, and emission filter at 447±60 nm, focusing with an Oil Immersion Epiplan 60× objective (Zeiss), and image collection with an SPOT RT-KE color CCD Camera (Diagnostic Instruments Inc.).
The results of the study of the activity are discussed below with the reference to FIG. 2. […]
Live cell fluorescence microscopy was then conducted to detail the intracellular localization of probe 4. […]
After 12 hours of incubation, the blue fluorescence from probe 4 was vesiculated (FIG. 2d). […] In particular, the overlap of red fluorescence from the red lysosome stain, LysoTracker Red DND-99, and the blue fluorescence from probe 4 provided strong evidence in support of this observation (FIG. 2f).

[3] = test system: HCT-116 cells; test: cell cycle effects by FACS analysis; settings: FIG. 3a-c, 50 μM
Procedure: The results of the study of the activity are discussed below with the reference to FIG. 3. […] Further, FIG. 3a illustrates cell cycle response for unsyncronized HCT-116 cells, FIG. 3b for HCT-116 cells synchronized and treated at G0 and incubated for 12 hours, and FIG. 3c, for HCT-116 cells synchronized and treated at S and incubated for 12 hours.
The effects of probe 4 on cell cycle were evaluated using FACS analysis.

[4] = HCT-116, read-out: cytotoxicity IC50 values
[5] = HCT-116, read-out: in vitro cytotoxicity IC50

SMILES	pIC50 [1, 4]	pIC50 [1, 5]	effect of pretreatment on uptake of probe 4 [2]	cell cycle data relative to probe 4 [3]
CN1C(=O)c2cc(C(N)=O)nc3c(N)c(Cl)c(N)c1c23 [Compound IB, ammosamide B]	> 6.00	6.49		
CN1C(=S)c2cc(C(N)=O)nc3c(N)c(Cl)c(N)c1c23 [Compound IA, ammosamide A]	> 6.00	6.49	blocked the uptake of probe 4	Comparable cell cycles data
